Measured values as given in patent US20190105367A1, “ANTIMICROBIAL 4-OXOQUINOLIZINES” (Emergent Product Development Gaithersburg Inc., priority 2011, published 2019).

Legend:
A. baumannii A14 [1] = experiment: MIC without and with sub-inhibitory polymyxin B (Example 4); format: cell-based, Acinetobacter baumannii; details: 1st experiment
A. baumannii A329 = experiment: Preliminary MBC without and with sub-inhibitory polymyxin B (Example 4); format: cell-based, Acinetobacter baumannii; details: for MBC: 2nd experiment
A. baumannii NCTC 13301 [2] = experiment: as above; format: cell-based, Acinetobacter baumannii; details: A. baumannii NCTC 13301, preliminary MBC; for MBC: 2nd experiment
Procedure, shortened: (§1)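 Incubation 18-20 h, 37° C. MBC = lowest conc. with ~90% fewer colonies than positive control (single/no colonies).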

A. baumannii A14 [3] = experiment: as above; format: cell-based, Acinetobacter baumannii; details: 2nd experiment
Procedure, shortened: as §1

A. baumannii A390 [4] = experiment: as above; format: cell-based, Acinetobacter baumannii; details: for MBC: 2nd experiment
Procedure, shortened: as §1

A. baumannii A473 [5] = experiment: as above; format: cell-based, Acinetobacter baumannii; details: for MBC: 2nd experiment
Procedure, shortened: as §1

A. baumannii A473 [6] = experiment: MIC without and with sub-inhibitory polymyxin B (Example 4); format: cell-based, Acinetobacter baumannii; details: A. baumannii A473
A. baumannii NCTC 13301 [7] = experiment: as above; format: cell-based, Acinetobacter baumannii; details: A. baumannii NCTC 13301, 2nd experiment
A. baumannii ATCC 19606 [8] = experiment: Preliminary MBC without and with sub-inhibitory polymyxin B (Example 4); format: cell-based, Acinetobacter baumannii; details: for MBC: 2nd experiment
A. baumannii A387 [9] = experiment: as above; format: cell-based, Acinetobacter baumannii; details: for MBC: 2nd experiment
A. baumannii A387 [10] = experiment: MIC without and with sub-inhibitory polymyxin B (Example 4); format: cell-based, Acinetobacter baumannii; details: A. baumannii A387
A. baumannii ATCC 19606 [11] = experiment: as above; format: cell-based, Acinetobacter baumannii; details: A. baumannii ATCC 19606
A. baumannii A14 [12] = experiment: as above; format: cell-based, Acinetobacter baumannii; details: A. baumannii A14, 2nd experiment
A. baumannii A489 = experiment: as above; format: cell-based, Acinetobacter baumannii; details: A. baumannii A489
A. baumannii A390 [13] = experiment: as above; format: cell-based, Acinetobacter baumannii; details: A. baumannii A390
A. baumannii A472 [14] = experiment: Preliminary MBC without and with sub-inhibitory polymyxin B (Example 4); format: cell-based, Acinetobacter baumannii; details: A. baumannii A472, preliminary MBC; for MBC: 2nd experiment
A. baumannii J2 = experiment: MIC without and with sub-inhibitory polymyxin B (Example 4); format: cell-based, Acinetobacter baumannii; details: A. baumannii J2
[15] = test system: Acinetobacter sp. (H064200250); experiment: as above; format: cell-based
A. baumannii A472 [16] = experiment: as above; format: cell-based, Acinetobacter baumannii; details: A. baumannii A472; for MIC: 2nd experiment
A. baumannii A401 [17] = experiment: Preliminary MBC without and with sub-inhibitory polymyxin B (Example 4); format: cell-based, Acinetobacter baumannii; details: for MBC: 2nd experiment
A. baumannii A401 [18] = experiment: MIC without and with sub-inhibitory polymyxin B (Example 4); format: cell-based, Acinetobacter baumannii; details: A baumannii A 401; for MIC: 2nd experiment
A. baumannii A14 [19] = experiment: Preliminary MBC without and with sub-inhibitory polymyxin B (Example 4); format: cell-based, Acinetobacter baumannii; details: A. baumannii A14, preliminary MBC, 1st experiment
A. baumannii NCTC 13301 [20] = experiment: MIC without and with sub-inhibitory polymyxin B (Example 4); format: cell-based, Acinetobacter baumannii; details: A. baumannii NCTC 13301, 1st experiment
[21] = +[…] polymyxin B, 1st experiment
[22] = without polymyxin B, 1st experiment
[23] = +0.06 μg/ml polymyxin B, 1st experiment
[24] = ratio, PB 0.06 μg/ml, 1st experiment
[25] = Acinetobacter spp. H064200250 (OXA51), +[…] PB, 2nd experiment

Polymyxin B [reference compound]
0.5 µg/mL: MIC +0.06 μg/ml PB (A. baumannii A14 [1]; +0.06 μg/ml polymyxin B) | MIC without PB (A. baumannii A14 [1]; without polymyxin B) | MBC without PB (A. baumannii A329; A. baumannii A329, without polymyxin B, 1st experiment) | MBC +[…] PB (A. baumannii NCTC 13301 [2]; [21]) | MBC without PB (A. baumannii NCTC 13301 [2]; [22]) | MBC +0.06 μg/ml PB (A. baumannii ATCC 19606 [8]; A. baumannii ATCC 19606, +0.06 μg/ml polymyxin B, 1st experiment) | MBC (A. baumannii ATCC 19606 [8]; A. baumannii ATCC 19606, without PB) | MBC without PB (A. baumannii ATCC 19606 [8]; A. baumannii ATCC 19606, without polymyxin B, 1st experiment) | MIC +0.06 μg/ml PB (A. baumannii ATCC 19606 [11]; [23]) | MIC (A. baumannii ATCC 19606 [11]; without PB, 2nd experiment) | MIC without PB (A. baumannii ATCC 19606 [11]; [22]) | MIC (A. baumannii A489; without PB, 2nd experiment) | MBC (A. baumannii A472 [14]; without PB) | MBC without PB (A. baumannii A472 [14]; [22]) | MIC +[…] PB (A. baumannii J2; [21]) | MIC (A. baumannii J2; without PB, 2nd experiment) | MIC without PB (A. baumannii J2; [22]) | MIC without PB ([15]; Acinetobacter spp. H064200250, without polymyxin B, 1st experiment) | MIC (A. baumannii A472 [16]; without PB) | MIC without PB (A. baumannii A472 [16]; [22]) | MBC +0.06 μg/ml PB (A. baumannii A401 [17]; A baumannii A 401, +0.06 μg/ml polymyxin B, 1st experiment) | MBC (A. baumannii A401 [17]; A baumannii A 401, without PB) | MIC +0.06 μg/ml PB (A. baumannii A401 [18]; [23]) | MIC (A. baumannii A401 [18]; without PB) | MBC +0.06 μg/ml PB (A. baumannii A14 [19]; +0.06 μg/ml polymyxin B) | MBC without PB (A. baumannii A14 [19]; without polymyxin B) | MIC without PB (A. baumannii NCTC 13301 [20]; without polymyxin B)
≤0.125 µg/mL: MBC (A. baumannii NCTC 13301 [2]; +[…] PB) | MBC (A. baumannii A390 [4]; A. baumannii A390, +0.06 μg/ml PB) | MIC (A. baumannii A390 [13]; +0.06 μg/ml PB, 2nd experiment) | MBC +[…] PB (A. baumannii A472 [14]; [21]) | MIC (A. baumannii J2; +[…] PB, 2nd experiment) | MIC +[…] PB (A. baumannii A472 [16]; [21])
2 µg/mL: MIC read with alamar blue (A. baumannii A473 [6]; without PB, value in parentheses, 2nd experiment) | MIC without PB (A. baumannii A489; [22])
1 µg/mL: MBC without PB (A. baumannii A473 [5]; A. baumannii A473, without polymyxin B, 1st experiment) | MIC without PB (A. baumannii A473 [6]; [22]) | MIC +[…] PB (A. baumannii A489; [21]) | MBC without PB (A. baumannii A401 [17]; A baumannii A 401, without polymyxin B, 1st experiment) | MIC without PB (A. baumannii A401 [18]; [22]) | MIC +[…] PB (A. baumannii NCTC 13301 [20]; +[…] polymyxin B)
2: MIC without PB/MIC + PB (A. baumannii ATCC 19606 [11]; +0.06 μg/ml PB, 2nd experiment) | MIC without PB/MIC + PB (A. baumannii A489; +[…] PB, 2nd experiment) | MIC without PB/MIC + PB (A. baumannii A489; ratio, PB […], 1st experiment) | MIC without PB/MIC + PB ([15]; Acinetobacter spp. H064200250, ratio, PB […], 1st experiment) | MIC without PB/MIC + PB (A. baumannii A401 [18]; [24])
≥2: MIC without PB/MIC + PB (A. baumannii NCTC 13301 [7]; +[…] PB) | MIC without PB/MIC + PB (A. baumannii A387 [10]; +0.06 μg/ml PB, 2nd experiment) | MIC without PB/MIC + PB (A. baumannii A390 [13]; +0.06 μg/ml PB, 2nd experiment)
≤ 0.125 µg/mL: MIC (A. baumannii NCTC 13301 [7]; +[…] PB) | MIC (A. baumannii A387 [10]; +0.06 μg/ml PB, 2nd experiment)
1: MIC without PB/MIC + PB (A. baumannii A14 [1]; ratio, PB 0.06 μg/ml) | MIC without PB/MIC + PB (A. baumannii A473 [6]; +0.06 μg/ml PB, 2nd experiment) | MIC without PB/MIC + PB (A. baumannii A387 [10]; [24]) | MIC without PB/MIC + PB (A. baumannii ATCC 19606 [11]; [24]) | MIC without PB/MIC + PB (A. baumannii A14 [12]; +0.06 μg/ml PB) | MIC without PB/MIC + PB (A. baumannii J2; ratio, PB […], 1st experiment) | MIC without PB/MIC + PB [15, 25]
≥4: MIC without PB/MIC + PB (A. baumannii J2; +[…] PB, 2nd experiment) | MIC without PB/MIC + PB (A. baumannii A472 [16]; ratio, PB […], 1st experiment)
0.5: MIC without PB/MIC + PB (A. baumannii NCTC 13301 [20]; ratio, PB […])
0.25 µg/mL: MBC (A. baumannii A329; A. baumannii A329, +0.06 μg/ml PB) | MBC (A. baumannii A329; A. baumannii A329, without PB) | MBC (A. baumannii NCTC 13301 [2]; without PB) | MBC (A. baumannii A14 [3]; A. baumannii A14, +0.06 μg/ml PB) | MBC (A. baumannii A14 [3]; A. baumannii A14, without PB) | MBC (A. baumannii A390 [4]; A. baumannii A390, without PB) | MBC without PB (A. baumannii A390 [4]; A. baumannii A390, without polymyxin B, 1st experiment) | MBC (A. baumannii A473 [5]; A. baumannii A473, +0.06 μg/ml PB) | MBC (A. baumannii A473 [5]; A. baumannii A473, without PB) | MIC (A. baumannii A473 [6]; +0.06 μg/ml PB, 2nd experiment) | MIC (A. baumannii A473 [6]; without PB, 2nd experiment) | MIC (A. baumannii NCTC 13301 [7]; +[…] PB, value in parentheses marked *, mark not explained) | MIC (A. baumannii NCTC 13301 [7]; without PB) | MBC (A. baumannii ATCC 19606 [8]; A. baumannii ATCC 19606, +0.06 μg/ml PB) | MBC (A. baumannii A387 [9]; A. baumannii A387, +0.06 μg/ml PB) | MBC +0.06 μg/ml PB (A. baumannii A387 [9]; A. baumannii A387, +0.06 μg/ml polymyxin B, 1st experiment) | MBC (A. baumannii A387 [9]; A. baumannii A387, without PB) | MBC without PB (A. baumannii A387 [9]; A. baumannii A387, without polymyxin B, 1st experiment) | MIC read with alamar blue (A. baumannii A387 [10]; +0.06 μg/ml PB, value in parentheses, 2nd experiment) | MIC +0.06 μg/ml PB (A. baumannii A387 [10]; [23]) | MIC (A. baumannii A387 [10]; without PB, 2nd experiment) | MIC without PB (A. baumannii A387 [10]; [22]) | MIC (A. baumannii ATCC 19606 [11]; +0.06 μg/ml PB, 2nd experiment) | MIC (A. baumannii A14 [12]; +0.06 μg/ml PB) | MIC (A. baumannii A14 [12]; without PB) | MIC (A. baumannii A489; +[…] PB, 2nd experiment) | MIC (A. baumannii A390 [13]; without PB, 2nd experiment) | MIC without PB (A. baumannii A390 [13]; [22]) | MBC (A. baumannii A472 [14]; +[…] PB) | MIC [15, 25] | MIC ([15]; Acinetobacter spp. H064200250 (OXA51), without PB, 2nd experiment) | MIC +[…] PB ([15]; Acinetobacter spp. H064200250, +[…] polymyxin B, 1st experiment) | MIC (A. baumannii A472 [16]; +[…] PB) | MBC (A. baumannii A401 [17]; A baumannii A 401, +0.06 μg/ml PB) | MIC (A. baumannii A401 [18]; +0.06 μg/ml PB)
